One block for each compound: values may come before it.
What was measured:
Experiment in all cases: radiometric filter-binding kinase assay, Kinase HotSpot
Settings in all cases: compound 0.5 µM; ATP 10 µM
AURKB (human) = AURKB (human) (UniProt Q96GD4)
RPS6KB2 (human) = RPS6KB2 (human) (UniProt Q9UBS0)
MARK3 (human) = MARK3 (human) (UniProt P27448)
CSNK2A2 (human) = CSNK2A2 (human) (UniProt P19784)
MAPKAPK2 (human) = MAPKAPK2 (human) (UniProt P49137)
RPS6KA4 KD2 (human) = RPS6KA4 KD2 (human) (UniProt O75676)
CDK4 CCND3 (human) = CDK4 CCND3 (human) (UniProt P30281+P11802)
PNCK (human) = PNCK (human) (UniProt Q6P2M8)
CDK5 CDK5R1 p35 (human) = CDK5 CDK5R1 p35 (human) (UniProt Q00535+Q15078)
ABL1 (human) = ABL1 (human) (UniProt P00519)
EPHA7 (human) = EPHA7 (human) (UniProt Q15375)
STK25 (human) = STK25 (human) (UniProt O00506)
Sequence of STK25 (human) (O00506 whole entry, looked up): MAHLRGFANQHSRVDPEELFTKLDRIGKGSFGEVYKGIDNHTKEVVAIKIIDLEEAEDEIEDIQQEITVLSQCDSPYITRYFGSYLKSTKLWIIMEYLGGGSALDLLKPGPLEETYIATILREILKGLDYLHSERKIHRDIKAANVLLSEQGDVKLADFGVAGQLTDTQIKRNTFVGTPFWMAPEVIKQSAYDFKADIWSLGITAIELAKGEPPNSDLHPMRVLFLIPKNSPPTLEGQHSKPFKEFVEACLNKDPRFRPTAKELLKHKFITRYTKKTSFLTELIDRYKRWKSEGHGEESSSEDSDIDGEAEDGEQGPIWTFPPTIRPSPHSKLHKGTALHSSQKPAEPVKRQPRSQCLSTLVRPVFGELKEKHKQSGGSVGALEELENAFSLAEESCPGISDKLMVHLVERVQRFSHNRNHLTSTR

PRKCZ (human) = PRKCZ (human) (UniProt Q05513)
MAP3K9 (human) = MAP3K9 (human) (UniProt P80192)
GSK3B (human) = GSK3B (human) (UniProt P49841)
LTK (human) = LTK (human) (UniProt P29376)
ROS1 (human) = ROS1 (human) (UniProt P08922)
CAMK1D (human) = CAMK1D (human) (UniProt Q8IU85)
MAP4K4 (human) = MAP4K4 (human) (UniProt O95819)
ULK2 (human) = ULK2 (human) (UniProt Q8IYT8)
MAP3K2 (human) = MAP3K2 (human) (UniProt Q9Y2U5)
ACVR1B (human) = ACVR1B (human) (UniProt P36896)
Sequence of ACVR1B (human) (P36896 whole entry, looked up): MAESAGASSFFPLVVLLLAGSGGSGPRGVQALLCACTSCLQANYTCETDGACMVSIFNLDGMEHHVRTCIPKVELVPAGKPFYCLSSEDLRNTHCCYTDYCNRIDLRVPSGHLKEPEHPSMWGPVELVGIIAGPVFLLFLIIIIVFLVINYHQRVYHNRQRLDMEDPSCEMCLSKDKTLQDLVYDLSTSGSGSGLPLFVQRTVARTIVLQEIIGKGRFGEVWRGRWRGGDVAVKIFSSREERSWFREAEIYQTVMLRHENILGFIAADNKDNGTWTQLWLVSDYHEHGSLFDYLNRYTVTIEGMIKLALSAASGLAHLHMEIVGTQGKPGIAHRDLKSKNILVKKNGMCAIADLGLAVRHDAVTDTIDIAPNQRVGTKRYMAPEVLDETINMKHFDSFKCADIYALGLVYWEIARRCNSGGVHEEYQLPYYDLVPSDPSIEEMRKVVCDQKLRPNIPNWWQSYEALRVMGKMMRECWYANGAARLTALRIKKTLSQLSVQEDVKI

TSSK1B (human) = TSSK1B (human) (UniProt Q9BXA7)
HIPK4 (human) = HIPK4 (human) (UniProt Q8NE63)
PHKG2 (human) = PHKG2 (human) (UniProt P15735)
TAOK2 (human) = TAOK2 (human) (UniProt Q9UL54)
CLK1 (human) = CLK1 (human) (UniProt P49759)
MAP3K10 (human) = MAP3K10 (human) (UniProt Q02779)
EPHB2 (human) = EPHB2 (human) (UniProt P29323)
PRKCI (human) = PRKCI (human) (UniProt P41743)
Sequence of PRKCI (human) (P41743 whole entry, looked up): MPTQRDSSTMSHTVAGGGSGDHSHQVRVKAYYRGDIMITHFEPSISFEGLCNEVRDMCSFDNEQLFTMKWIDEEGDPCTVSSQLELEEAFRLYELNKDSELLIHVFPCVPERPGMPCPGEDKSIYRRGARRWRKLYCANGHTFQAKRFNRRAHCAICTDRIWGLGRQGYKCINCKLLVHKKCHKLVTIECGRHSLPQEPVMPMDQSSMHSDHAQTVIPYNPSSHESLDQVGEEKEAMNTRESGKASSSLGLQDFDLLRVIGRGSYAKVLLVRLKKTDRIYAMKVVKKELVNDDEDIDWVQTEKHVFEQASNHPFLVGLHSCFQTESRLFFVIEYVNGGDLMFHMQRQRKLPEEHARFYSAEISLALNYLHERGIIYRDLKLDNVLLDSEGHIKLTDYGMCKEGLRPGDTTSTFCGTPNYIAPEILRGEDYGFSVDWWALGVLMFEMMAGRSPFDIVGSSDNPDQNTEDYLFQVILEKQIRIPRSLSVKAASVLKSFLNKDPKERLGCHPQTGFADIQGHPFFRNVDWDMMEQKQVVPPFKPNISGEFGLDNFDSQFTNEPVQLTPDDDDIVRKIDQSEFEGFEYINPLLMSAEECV

MAPK10 (human) = MAPK10 (human) (UniProt P53779)
EPHA5 (human) = EPHA5 (human) (UniProt P54756)
Sequence of EPHA5 (human) (P54756 whole entry, looked up): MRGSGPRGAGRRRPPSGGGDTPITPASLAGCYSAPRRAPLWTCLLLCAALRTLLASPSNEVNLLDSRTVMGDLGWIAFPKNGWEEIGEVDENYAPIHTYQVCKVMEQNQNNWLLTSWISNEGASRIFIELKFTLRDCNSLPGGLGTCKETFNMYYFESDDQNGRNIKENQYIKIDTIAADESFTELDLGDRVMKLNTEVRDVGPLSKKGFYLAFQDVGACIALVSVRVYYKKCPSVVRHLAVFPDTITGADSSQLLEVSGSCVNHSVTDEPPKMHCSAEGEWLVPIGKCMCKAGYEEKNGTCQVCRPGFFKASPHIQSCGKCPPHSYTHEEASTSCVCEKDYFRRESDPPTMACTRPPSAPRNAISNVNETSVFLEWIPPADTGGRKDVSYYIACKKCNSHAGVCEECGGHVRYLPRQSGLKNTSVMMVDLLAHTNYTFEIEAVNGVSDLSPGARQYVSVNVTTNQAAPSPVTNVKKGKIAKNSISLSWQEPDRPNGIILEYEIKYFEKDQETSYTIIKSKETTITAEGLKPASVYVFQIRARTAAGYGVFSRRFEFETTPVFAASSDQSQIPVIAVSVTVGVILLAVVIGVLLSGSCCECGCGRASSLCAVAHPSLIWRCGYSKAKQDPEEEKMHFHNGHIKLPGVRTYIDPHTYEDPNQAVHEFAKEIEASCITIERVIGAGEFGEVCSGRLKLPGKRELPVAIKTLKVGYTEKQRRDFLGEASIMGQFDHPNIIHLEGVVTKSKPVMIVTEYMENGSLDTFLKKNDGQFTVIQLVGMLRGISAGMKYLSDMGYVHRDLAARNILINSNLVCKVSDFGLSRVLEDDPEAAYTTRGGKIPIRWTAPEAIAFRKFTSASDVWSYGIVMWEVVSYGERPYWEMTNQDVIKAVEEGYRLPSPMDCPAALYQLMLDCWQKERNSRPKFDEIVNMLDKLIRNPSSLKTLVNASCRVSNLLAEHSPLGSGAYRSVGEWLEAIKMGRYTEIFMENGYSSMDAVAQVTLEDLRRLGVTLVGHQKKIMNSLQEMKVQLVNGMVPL

STK3 (human) = STK3 (human) (UniProt Q13188)
MAP2K2 (human) = MAP2K2 (human) (UniProt P36507)
Sequence of MAP2K2 (human) (P36507 whole entry, looked up): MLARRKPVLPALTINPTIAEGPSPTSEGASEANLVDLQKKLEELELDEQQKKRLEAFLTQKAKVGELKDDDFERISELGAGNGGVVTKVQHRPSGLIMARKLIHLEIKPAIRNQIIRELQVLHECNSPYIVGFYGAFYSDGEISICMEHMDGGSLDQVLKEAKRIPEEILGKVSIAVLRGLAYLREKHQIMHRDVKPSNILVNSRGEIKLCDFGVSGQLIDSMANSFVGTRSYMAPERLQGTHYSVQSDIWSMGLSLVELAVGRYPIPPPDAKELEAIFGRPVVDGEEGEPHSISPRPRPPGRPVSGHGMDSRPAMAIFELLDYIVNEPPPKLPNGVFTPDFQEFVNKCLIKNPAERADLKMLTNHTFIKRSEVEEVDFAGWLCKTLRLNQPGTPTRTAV

MAP3K11 (human) = MAP3K11 (human) (UniProt Q16584)
PKN2 (human) = PKN2 (human) (UniProt Q16513)
Sequence of PKN2 (human) (Q16513 whole entry, looked up): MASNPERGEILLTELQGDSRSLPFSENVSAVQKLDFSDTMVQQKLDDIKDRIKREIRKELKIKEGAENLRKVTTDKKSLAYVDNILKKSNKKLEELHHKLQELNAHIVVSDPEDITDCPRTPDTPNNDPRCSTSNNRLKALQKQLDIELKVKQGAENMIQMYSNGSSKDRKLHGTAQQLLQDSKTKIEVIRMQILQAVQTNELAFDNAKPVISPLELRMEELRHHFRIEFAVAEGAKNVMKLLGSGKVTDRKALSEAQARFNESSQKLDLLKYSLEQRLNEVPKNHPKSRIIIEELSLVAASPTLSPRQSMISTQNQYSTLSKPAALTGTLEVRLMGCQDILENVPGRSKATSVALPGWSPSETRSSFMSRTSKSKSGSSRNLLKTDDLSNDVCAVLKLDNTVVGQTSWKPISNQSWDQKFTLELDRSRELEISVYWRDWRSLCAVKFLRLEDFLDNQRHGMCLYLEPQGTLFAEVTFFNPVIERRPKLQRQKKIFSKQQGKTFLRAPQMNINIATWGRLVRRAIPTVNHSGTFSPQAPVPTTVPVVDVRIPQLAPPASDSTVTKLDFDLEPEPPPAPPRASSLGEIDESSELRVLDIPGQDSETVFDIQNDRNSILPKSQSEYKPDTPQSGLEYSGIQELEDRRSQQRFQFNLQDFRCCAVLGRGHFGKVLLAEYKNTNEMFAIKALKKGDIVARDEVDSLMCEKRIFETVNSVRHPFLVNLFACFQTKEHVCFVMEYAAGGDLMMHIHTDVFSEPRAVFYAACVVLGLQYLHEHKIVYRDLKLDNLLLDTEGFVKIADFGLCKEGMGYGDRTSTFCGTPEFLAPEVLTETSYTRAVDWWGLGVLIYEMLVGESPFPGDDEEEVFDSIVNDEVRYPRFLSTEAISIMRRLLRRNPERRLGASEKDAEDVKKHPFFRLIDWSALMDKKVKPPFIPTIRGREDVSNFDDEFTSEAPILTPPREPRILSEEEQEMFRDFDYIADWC

MAP3K8 (human) = MAP3K8 (human) (UniProt P41279)
PRKCG (human) = PRKCG (human) (UniProt P05129)
PASK (human) = PASK (human) (UniProt Q96RG2)
ITK (human) = ITK (human) (UniProt Q08881)
TEC (human) = TEC (human) (UniProt P42680)

Sequence of MARK3 (human) (P27448 whole entry, looked up): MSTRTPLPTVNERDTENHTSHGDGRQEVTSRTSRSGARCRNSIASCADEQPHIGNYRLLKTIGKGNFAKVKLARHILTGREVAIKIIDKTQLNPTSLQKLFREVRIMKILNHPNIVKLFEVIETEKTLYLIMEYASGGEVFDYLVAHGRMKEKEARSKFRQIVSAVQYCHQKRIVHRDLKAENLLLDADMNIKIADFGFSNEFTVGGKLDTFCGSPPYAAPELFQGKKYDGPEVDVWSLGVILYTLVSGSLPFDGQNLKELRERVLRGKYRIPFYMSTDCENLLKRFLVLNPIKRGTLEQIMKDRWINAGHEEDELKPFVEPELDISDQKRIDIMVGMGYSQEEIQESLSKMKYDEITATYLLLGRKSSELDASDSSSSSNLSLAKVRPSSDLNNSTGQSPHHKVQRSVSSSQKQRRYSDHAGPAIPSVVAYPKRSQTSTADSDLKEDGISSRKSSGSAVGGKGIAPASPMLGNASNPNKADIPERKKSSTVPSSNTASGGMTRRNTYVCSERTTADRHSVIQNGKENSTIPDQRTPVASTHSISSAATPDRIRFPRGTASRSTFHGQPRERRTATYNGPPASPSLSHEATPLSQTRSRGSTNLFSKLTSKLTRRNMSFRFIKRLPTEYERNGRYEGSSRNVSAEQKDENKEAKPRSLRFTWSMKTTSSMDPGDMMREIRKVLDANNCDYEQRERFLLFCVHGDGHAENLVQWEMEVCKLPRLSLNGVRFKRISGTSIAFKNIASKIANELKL
Sequence of CSNK2A2 (human) (P19784 whole entry, looked up): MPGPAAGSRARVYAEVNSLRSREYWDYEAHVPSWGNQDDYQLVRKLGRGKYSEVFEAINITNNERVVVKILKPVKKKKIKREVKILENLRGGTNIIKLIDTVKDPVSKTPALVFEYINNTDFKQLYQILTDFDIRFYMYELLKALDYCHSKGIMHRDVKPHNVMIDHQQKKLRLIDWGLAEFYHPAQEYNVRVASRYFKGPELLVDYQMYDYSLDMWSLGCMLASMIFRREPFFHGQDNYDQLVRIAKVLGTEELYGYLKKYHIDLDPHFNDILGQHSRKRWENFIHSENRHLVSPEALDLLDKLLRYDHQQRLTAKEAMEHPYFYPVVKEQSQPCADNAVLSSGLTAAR

SMILES: CC#CC(=O)Nc1cc2c(Nc3ccc(F)c(Cl)c3)ncnc2cn1
- residual activity (AURKB (human)): 101%
- residual activity (RPS6KB2 (human)): 97.2%
- residual activity (MARK3 (human)): 107%
- residual activity (CSNK2A2 (human)): 96.5%
- residual activity (MAPKAPK2 (human)): 104%
- residual activity (RPS6KA4 KD2 (human)): 100%
- residual activity (CDK4 CCND3 (human)): 105%
- residual activity (PNCK (human)): 99.4%
- residual activity (CDK5 CDK5R1 p35 (human)): 97.9%
- residual activity (ABL1 (human)): 97.8%
- residual activity (EPHA7 (human)): 91.3%
- residual activity (STK25 (human)): 97.1%
- residual activity (PRKCZ (human)): 114%
- residual activity (MAP3K9 (human)): 95.8%
- residual activity (GSK3B (human)): 93%
- residual activity (LTK (human)): 93%
- residual activity (ROS1 (human)): 91.3%
- residual activity (CAMK1D (human)): 107%
- residual activity (MAP4K4 (human)): 110%
- residual activity (ULK2 (human)): 96.7%
- residual activity (MAP3K2 (human)): 107%
- residual activity (ACVR1B (human)): 104%
- residual activity (TSSK1B (human)): 104%
- residual activity (HIPK4 (human)): 99.7%
- residual activity (PHKG2 (human)): 99%
- residual activity (TAOK2 (human)): 106%
- residual activity (CLK1 (human)): 82.5%
- residual activity (MAP3K10 (human)): 98.9%
- residual activity (EPHB2 (human)): 80.9%
- residual activity (PRKCI (human)): 96.6%
- residual activity (MAPK10 (human)): 85.4%
- residual activity (EPHA5 (human)): 101%
- residual activity (STK3 (human)): 106%
- residual activity (MAP2K2 (human)): 106%
- residual activity (MAP3K11 (human)): 99.3%
- residual activity (PKN2 (human)): 95%
- residual activity (MAP3K8 (human)): 94.2%
- residual activity (PRKCG (human)): 97.2%
- residual activity (PASK (human)): 101%
- residual activity (ITK (human)): 76.3%
- residual activity (TEC (human)): 52.1%

- residual activity (AURKB (human)): 88.6%
- residual activity (RPS6KB2 (human)): 107%
- residual activity (MARK3 (human)): 89.8%
- residual activity (CSNK2A2 (human)): 74.7%
- residual activity (MAPKAPK2 (human)): 107%
- residual activity (RPS6KA4 KD2 (human)): 105%
- residual activity (CDK4 CCND3 (human)): 108%
- residual activity (PNCK (human)): 96.2%
- residual activity (ABL1 (human)): 67.4%
- residual activity (EPHA7 (human)): 98.3%
- residual activity (STK25 (human)): 113%
- residual activity (PRKCZ (human)): 107%
- residual activity (MAP3K9 (human)): 103%
- residual activity (GSK3B (human)): 99.2%
- residual activity (LTK (human)): 86.3%
- residual activity (ROS1 (human)): 101%
- residual activity (CAMK1D (human)): 50.3%
- residual activity (MAP4K4 (human)): 98.8%
- residual activity (ULK2 (human)): 125%
- residual activity (MAP3K2 (human)): 83.8%
- residual activity (ACVR1B (human)): 93.9%
- residual activity (TSSK1B (human)): 114%
- residual activity (HIPK4 (human)): 102%
- residual activity (PHKG2 (human)): 96.9%
- residual activity (TAOK2 (human)): 104%
- residual activity (CLK1 (human)): 103%
- residual activity (MAP3K10 (human)): 82.6%
- residual activity (EPHB2 (human)): 90.5%
- residual activity (PRKCI (human)): 103%
- residual activity (MAPK10 (human)): 87.4%
- residual activity (EPHA5 (human)): 108%
- residual activity (STK3 (human)): 97.7%
- residual activity (MAP2K2 (human)): 103%
- residual activity (MAP3K11 (human)): 92.9%
- residual activity (PKN2 (human)): 104%
- residual activity (MAP3K8 (human)): 83.3%
- residual activity (PRKCG (human)): 96.1%
- residual activity (PASK (human)): 98.5%
- residual activity (ITK (human)): 87.1%
- residual activity (TEC (human)): 8.33%
SMILES: Nc1ncnc2c1c(-c1ccc(Oc3ccccc3)cc1)cn2C1CCCC1

SMILES: N#CC(C#N)=C(N)/C(C#N)=C/c1ccc(O)cc1
- residual activity (AURKB (human)): 91%
- residual activity (RPS6KB2 (human)): 96.8%
- residual activity (MARK3 (human)): 96.5%
- residual activity (CSNK2A2 (human)): 102%
- residual activity (MAPKAPK2 (human)): 91.3%
- residual activity (RPS6KA4 KD2 (human)): 99.7%
- residual activity (CDK4 CCND3 (human)): 97.1%
- residual activity (PNCK (human)): 97.3%
- residual activity (CDK5 CDK5R1 p35 (human)): 91.9%
- residual activity (ABL1 (human)): 103%
- residual activity (EPHA7 (human)): 90.5%
- residual activity (STK25 (human)): 90.4%
- residual activity (PRKCZ (human)): 105%
- residual activity (MAP3K9 (human)): 94.4%
- residual activity (GSK3B (human)): 89.5%
- residual activity (LTK (human)): 92.5%
- residual activity (ROS1 (human)): 97.1%
- residual activity (CAMK1D (human)): 98.9%
- residual activity (MAP4K4 (human)): 91.2%
- residual activity (ULK2 (human)): 105%
- residual activity (MAP3K2 (human)): 102%
- residual activity (ACVR1B (human)): 101%
- residual activity (TSSK1B (human)): 111%
- residual activity (HIPK4 (human)): 99.7%
- residual activity (PHKG2 (human)): 96.7%
- residual activity (TAOK2 (human)): 97.3%
- residual activity (CLK1 (human)): 96.5%
- residual activity (MAP3K10 (human)): 98%
- residual activity (EPHB2 (human)): 97.1%
- residual activity (PRKCI (human)): 97.4%
- residual activity (MAPK10 (human)): 98.8%
- residual activity (EPHA5 (human)): 94.3%
- residual activity (STK3 (human)): 95.2%
- residual activity (MAP2K2 (human)): 103%
- residual activity (MAP3K11 (human)): 94.8%
- residual activity (PKN2 (human)): 96.9%
- residual activity (MAP3K8 (human)): 96%
- residual activity (PRKCG (human)): 105%
- residual activity (PASK (human)): 82.9%
- residual activity (ITK (human)): 98.7%
- residual activity (TEC (human)): 94.7%

SMILES: CCC(=O)Nc1ccc2ncnc(Nc3cccc(Br)c3)c2c1
- residual activity (AURKB (human)): 95.4%
- residual activity (RPS6KB2 (human)): 94.9%
- residual activity (MARK3 (human)): 86.1%
- residual activity (CSNK2A2 (human)): 61.4%
- residual activity (MAPKAPK2 (human)): 87.1%
- residual activity (RPS6KA4 KD2 (human)): 106%
- residual activity (CDK4 CCND3 (human)): 90.4%
- residual activity (PNCK (human)): 96%
- residual activity (CDK5 CDK5R1 p35 (human)): 100%
- residual activity (ABL1 (human)): 98.9%
- residual activity (EPHA7 (human)): 102%
- residual activity (STK25 (human)): 102%
- residual activity (PRKCZ (human)): 95.7%
- residual activity (MAP3K9 (human)): 92.7%
- residual activity (GSK3B (human)): 91.2%
- residual activity (LTK (human)): 81%
- residual activity (ROS1 (human)): 97.5%
- residual activity (CAMK1D (human)): 104%
- residual activity (MAP4K4 (human)): 91.1%
- residual activity (ULK2 (human)): 118%
- residual activity (MAP3K2 (human)): 76.1%
- residual activity (ACVR1B (human)): 96.5%
- residual activity (TSSK1B (human)): 73.2%
- residual activity (HIPK4 (human)): 87.8%
- residual activity (PHKG2 (human)): 109%
- residual activity (TAOK2 (human)): 91.4%
- residual activity (CLK1 (human)): 84.5%
- residual activity (MAP3K10 (human)): 91.2%
- residual activity (EPHB2 (human)): 95.1%
- residual activity (PRKCI (human)): 106%
- residual activity (MAPK10 (human)): 96.5%
- residual activity (EPHA5 (human)): 101%
- residual activity (STK3 (human)): 88%
- residual activity (MAP2K2 (human)): 85.1%
- residual activity (MAP3K11 (human)): 97.1%
- residual activity (PKN2 (human)): 106%
- residual activity (MAP3K8 (human)): 93%
- residual activity (PRKCG (human)): 102%
- residual activity (PASK (human)): 88.7%
- residual activity (ITK (human)): 89.7%
- residual activity (TEC (human)): 103%

SMILES: c1ccc(-c2n[nH]c3c2oc2ccccc23)cc1
- residual activity (AURKB (human)): 50.8%
- residual activity (RPS6KB2 (human)): 99.8%
- residual activity (MARK3 (human)): 96.5%
- residual activity (CSNK2A2 (human)): 85.6%
- residual activity (MAPKAPK2 (human)): 99.1%
- residual activity (RPS6KA4 KD2 (human)): 90.2%
- residual activity (CDK4 CCND3 (human)): 101%
- residual activity (PNCK (human)): 98.6%
- residual activity (CDK5 CDK5R1 p35 (human)): 85.8%
- residual activity (ABL1 (human)): 99.6%
- residual activity (EPHA7 (human)): 104%
- residual activity (STK25 (human)): 89.6%
- residual activity (PRKCZ (human)): 87.1%
- residual activity (MAP3K9 (human)): 97.5%
- residual activity (GSK3B (human)): 105%
- residual activity (LTK (human)): 94.8%
- residual activity (ROS1 (human)): 107%
- residual activity (CAMK1D (human)): 92.9%
- residual activity (MAP4K4 (human)): 36.1%
- residual activity (ULK2 (human)): 96.4%
- residual activity (MAP3K2 (human)): 85.9%
- residual activity (ACVR1B (human)): 96.6%
- residual activity (TSSK1B (human)): 97.2%
- residual activity (HIPK4 (human)): 103%
- residual activity (PHKG2 (human)): 112%
- residual activity (TAOK2 (human)): 80.7%
- residual activity (CLK1 (human)): 84%
- residual activity (MAP3K10 (human)): 91.4%
- residual activity (EPHB2 (human)): 83.1%
- residual activity (PRKCI (human)): 85.9%
- residual activity (MAPK10 (human)): 93.4%
- residual activity (EPHA5 (human)): 92.1%
- residual activity (STK3 (human)): 49.6%
- residual activity (MAP2K2 (human)): 85.8%
- residual activity (MAP3K11 (human)): 91.8%
- residual activity (PKN2 (human)): 97.5%
- residual activity (MAP3K8 (human)): 105%
- residual activity (PRKCG (human)): 99.9%
- residual activity (PASK (human)): 97.4%
- residual activity (ITK (human)): 80.4%
- residual activity (TEC (human)): 95.6%
